One test deals with TMD-8 cells. The test is described as follows: Cell proliferation assay (CellTiter-Glo), TMD-8 cells. It counts as cell-based. The note with it: Homo sapiens, TMD8, 120 h, 5-day treatment, read-out: TMD8 cell growth (GI50 μM). The gist of the method:
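TMD-8 cells seeded at 5,000–10,000/well, cultured overnight, then exposed to compound (vehicle 0.5% DMSO) for 5 days at 37 °C. Growth read by CellTiter-Glo luminescence; IC50 from log concentration versus % growth inhibition relative to vehicle.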
On the technique in general: In ATP-based viability assays light output follows the ATP content of the culture.

The target in the next test is T1, Btk (Homo sapiens, UniProt Q06187).
T1 construct: purchased Promega (Madison, Wis.)
T1 sequence (Q06187 whole entry): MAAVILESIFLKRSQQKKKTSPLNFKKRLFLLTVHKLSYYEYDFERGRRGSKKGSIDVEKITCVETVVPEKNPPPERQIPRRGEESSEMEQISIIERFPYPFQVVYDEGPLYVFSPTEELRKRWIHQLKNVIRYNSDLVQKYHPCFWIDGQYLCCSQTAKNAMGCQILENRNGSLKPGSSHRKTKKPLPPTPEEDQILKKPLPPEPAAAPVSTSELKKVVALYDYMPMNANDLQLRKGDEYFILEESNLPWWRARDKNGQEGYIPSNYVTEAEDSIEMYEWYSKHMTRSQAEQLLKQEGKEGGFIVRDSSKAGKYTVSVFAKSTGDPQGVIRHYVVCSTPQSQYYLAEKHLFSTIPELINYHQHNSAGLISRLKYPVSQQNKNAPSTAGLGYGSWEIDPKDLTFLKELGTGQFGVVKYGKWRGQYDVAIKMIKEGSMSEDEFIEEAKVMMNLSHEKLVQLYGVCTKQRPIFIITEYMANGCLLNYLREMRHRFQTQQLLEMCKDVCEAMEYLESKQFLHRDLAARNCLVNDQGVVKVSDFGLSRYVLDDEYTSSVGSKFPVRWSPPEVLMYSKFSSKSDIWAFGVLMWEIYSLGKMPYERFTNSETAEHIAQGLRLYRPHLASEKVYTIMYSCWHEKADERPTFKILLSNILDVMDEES
The experiment in a line: Btk kinase assay (ADP-Glo). It counts as biochemical. The note with it: ADP-Glo Btk kinase assay kit; ATP 1.2 μM; 60 minutes at room temperature. The procedure, abridged:
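Luminescent ADP detection after a 60 min reaction at 22±1 °C containing Btk 2 ng/μl, 1.2 μM ATP, 0.3 μM poly GT peptide and 1.4 mM MnCl2. IC50 from log concentration versus percent inhibition relative to DMSO vehicle.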

As for `C=CC(=O)N1CC[C@@H](Nc2ncnc3[nH]c(C#CCOc4cccc(F)c4F)cc23)C1` [Example 91, (R)-1-(3-((6-(3-(2,3-difluorophenoxy)prop-1-yn-1-yl)-7H-pyrrolo[2,3-d]pyrimidin-4-yl)amino)pyrrolidin-1-yl)prop-2-en-1-one], the GI50 (usually the concentration giving 50% growth inhibition) with TMD-8 cells was determined as 0.0015 µM. Also, the midpoint of inhibition against Btk, the IC50, lay at 8 nM.

As to `CN(C)C/C=C/C(=O)N1CC[C@@H](Nc2ncnc3[nH]c(C#CCOc4ccccc4)nc23)C1` [Example 32, (R,E)-4-(dimethylamino)-1-(3-((8-(3-phenoxyprop-1-yn-1-yl)-9H-purin-6-yl)amino)pyrrolidin-1-yl)but-2-en-1-one], the GI50 with TMD-8 cells worked out at 0.004 µM. The midpoint of inhibition at Btk, the IC50, lay at 7.5 nM.

In the case of `CN(C)C/C=C/C(=O)N1CCC(N(C)c2ncnc3[nH]c(C#CCOc4ccccc4)cc23)C1` (stereo not drawn) [Example 39, (E)-4-(dimethylamino)-1-(3-(methyl(6-(3-phenoxyprop-1-yn-1-yl)-7H-pyrrolo[2,3-d]pyrimidin-4-yl)amino)pyrrolidin-1-yl)but-2-en-1-one], the GI50 in the test with TMD-8 cells stood at 0.299 µM. Besides, the IC50 (as a rule, the concentration that inhibits the measured activity by half) against Btk is 192 nM.

In the case of `C=CC(=O)N1CCC(Nc2ncnc3[nH]c(C#CCOc4ccc(F)cc4)nc23)C1` (stereo not drawn) [Example 20, 1-(3-((8-(3-(4-fluorophenoxy)prop-1-yn-1-yl)-9H-purin-6-yl)amino)pyrrolidin-1-yl)prop-2-en-1-one], the GI50 with TMD-8 cells is 0.051 µM. On Btk, this molecule yielded an IC50 of 0.5 nM.

On to `C=CC(=O)N1CC[C@@H](Nc2ncnc3[nH]c(C#Cc4ccc(Cl)cc4)cc23)C1` [Example 63, (R)-1-(3-((6-((4-chlorophenyl)ethynyl)-7H-pyrrolo[2,3-d]pyrimidin-4-yl)amino)pyrrolidin-1-yl)prop-2-en-1-one], for which the 50% growth inhibitory concentration (GI50) in the test with TMD-8 cells stood at 0.0027 µM. Further, the IC50 against Btk was determined as 4.8 nM.

As to `C=CC(=O)N1CC[C@@H](Nc2ncnc3[nH]c(C#Cc4ccoc4)cc23)C1` [Example 79, (R)-1-(3-((6-(furan-3-ylethynyl)-7H-pyrrolo[2,3-d]pyrimidin-4-yl)amino)pyrrolidin-1-yl)prop-2-en-1-one], the GI50 in the test on TMD-8 cells worked out at 0.031 µM. For the same molecule, the half-inhibitory concentration (IC50) on Btk worked out at 2 nM.

As to `C=CC(=O)N1CC[C@@H](Nc2ncnc3[nH]c(C#Cc4ccc5occc5c4)cc23)C1` [Example 74, (R)-1-(3-((6-(benzofuran-5-ylethynyl)-7H-pyrrolo[2,3-d]pyrimidin-4-yl)amino)pyrrolidin-1-yl)prop-2-en-1-one], the GI50 in the test with TMD-8 cells was found to be 0.0012 µM. Also, the concentration for half-maximal inhibition (IC50) at Btk came to 0.03 nM.

In the case of `C#CC(=O)N1CC[C@@H](Nc2ncnc3[nH]c(C#CCOc4ccccc4F)cc23)C1` [Example 85, (R)-1-(3-((6-(3-(2-fluorophenoxy)prop-1-yn-1-yl)-7H-pyrrolo[2,3-d]pyrimidin-4-yl)amino)pyrrolidin-1-yl)prop-2-yn-1-one], the GI50 in the test with TMD-8 cells was determined as 0.091 µM. In addition, half-maximal inhibition against Btk (IC50) was put at 7 nM.

`CC#CC(=O)N1CC[C@@H](Nc2ncnc3[nH]c(C#CCOc4ccccc4F)cc23)C1` [Example 47, (R)-1-(3-((6-(3-(2-fluorophenoxy)prop-1-yn-1-yl)-7H-pyrrolo[2,3-d]pyrimidin-4-yl)amino)pyrrolidin-1-yl)but-2-yn-1-one]: in the test on TMD-8 cells, the GI50 worked out at 0.008 µM. Further, inhibition against Btk was half-maximal at 136 nM (IC50).

In the case of `CN(C)C/C=C/C(=O)N1CCC(Nc2ncnc3[nH]c(C#CCOc4ccc(Cl)cc4)nc23)C1` (stereo not drawn) [Example 21, (E)-1-(3-((8-(3-(4-chlorophenoxy)prop-1-yn-1-yl)-9H-purin-6-yl)amino)pyrrolidin-1-yl)-4-(dimethylamino)but-2-en-1-one], the GI50 in the test with TMD-8 cells stood at 1.8 µM. Further, on Btk, the IC50 came out at 4 nM.

In the case of `CN(C)C/C=C/C(=O)N1CCN(c2ncnc3[nH]c(C#CCOc4ccccc4)nc23)CC1` [Example 7, (E)-4-(dimethylamino)-1-(4-(8-(3-phenoxyprop-1-yn-1-yl)-9H-purin-6-yl)piperazin-1-yl)but-2-en-1-one], the GI50 with TMD-8 cells came to 0.141 µM. Further, 3 nM corresponded to half-maximal inhibition against Btk (IC50).

Turning to `CN(C)C/C=C/C(=O)N1CC[C@@H](Nc2ncnc3[nH]c(C#Cc4ccccc4)cc23)C1` [Example 54, (R,E)-4-(dimethylamino)-1-(3-((6-(phenylethynyl)-7H-pyrrolo[2,3-d]pyrimidin-4-yl)amino)pyrrolidin-1-yl)but-2-en-1-one], the 50% growth inhibitory concentration (GI50) in the test with TMD-8 cells came out at 0.121 µM. The molecule further registered an IC50 against Btk of 3.5 nM.

With `C=CC(=O)N1CCC(Nc2ncnc3[nH]c(C#CCOc4ccc(F)c(F)c4)nc23)C1` (stereo not drawn) [Example 14, 1-(3-((8-(3-(3,4-difluorophenoxy)prop-1-yn-1-yl)-9H-purin-6-yl)amino)pyrrolidin-1-yl)prop-2-en-1-one], in the test on TMD-8 cells, the 50% growth inhibitory concentration (GI50) was found to be 0.134 µM. This molecule also came in with an IC50 against Btk of 15 nM.

With `CN(C)C/C=C/C(=O)N1CC[C@@H](Nc2ncnc3[nH]c(C#Cc4ccccc4Cl)cc23)C1` [Example 56, (R,E)-1-(3-((6-((2-chlorophenyl)ethynyl)-7H-pyrrolo[2,3-d]pyrimidin-4-yl)amino)pyrrolidin-1-yl)-4-(dimethylamino)but-2-en-1-one], in the test on TMD-8 cells, the GI50 was determined as 1 µM. In addition, half-maximal inhibition at Btk (IC50) was put at 323 nM.

Take `C=CC(=O)N1CC[C@@H](Nc2ncnc3[nH]c(C#Cc4ccc(Cl)c(F)c4)cc23)C1` [Example 70, (R)-1-(3-((6-((3-fluoro-4-chlorophenyl)ethynyl)-7H-pyrrolo[2,3-d]pyrimidin-4-yl)amino)pyrrolidin-1-yl)prop-2-en-1-one]: in the test on TMD-8 cells, the GI50 was found to be 0.0013 µM. The same molecule displayed an IC50 against Btk of 7.2 nM.

As for `C=CC(=O)N1CC[C@@H](Nc2ncnc3[nH]c(C#Cc4ccc(OC(F)(F)F)cc4)cc23)C1` [Example 66, (R)-1-(3-((6-((4-trifluoromethoxyphenyl)ethynyl)-7H-pyrrolo[2,3-d]pyrimidin-4-yl)amino)pyrrolidin-1-yl)prop-2-en-1-one], in the test with TMD-8 cells, the GI50 stood at 0.0012 µM. The molecule also registered an IC50 against Btk of 215 nM.

As to `COc1ccccc1OCC#Cc1cc2c(N[C@@H]3CCN(C(=O)/C=C/CN(C)C)C3)ncnc2[nH]1` [Example 46, (R,E)-1-(3-((6-(3-(2-methoxyphenoxy)prop-1-yn-1-yl)-7H-pyrrolo[2,3-d]pyrimidin-4-yl)amino)pyrrolidin-1-yl)-4-(dimethylamino)but-2-en-1-one], in the test on TMD-8 cells, the GI50 was found to be 0.017 µM. In addition, 0.04 nM corresponded to half-maximal inhibition on Btk (IC50).

Take `C=CC(=O)N1CCC(Nc2ncnc3[nH]c(C#CCOc4ccc(OC)cc4)nc23)C1` (stereo not drawn) [Example 27, 1-(3-((8-(3-(4-methoxyphenoxy)prop-1-yn-1-yl)-9H-purin-6-yl)amino)pyrrolidin-1-yl)prop-2-en-1-one]: in the test with TMD-8 cells, the concentration for 50% growth inhibition (GI50) stood at 0.094 µM. Further, the IC50 against Btk came to 16 nM.

For the molecule `C=CC(=O)N1CC[C@@H](Nc2ncnc3[nH]c(C#CCOc4ccccc4C#N)cc23)C1` [Example 82, (R)-1-(3-((6-(3-(2-cyanophenoxy)prop-1-yn-1-yl)-7H-pyrrolo[2,3-d]pyrimidin-4-yl)amino)pyrrolidin-1-yl)prop-2-en-1-one], the GI50 in the test with TMD-8 cells stood at 0.0045 µM. For the same molecule, the 50% inhibitory concentration (IC50) at Btk was 38 nM.

In the case of `CNC/C=C/C(=O)N1CCN(c2ncnc3[nH]c(C#CCOc4ccccc4)cc23)CC1` [Example 3, (E)-4-(methylamino)-1-(4-(6-(3-phenoxyprop-1-yn-1-yl)-7H-pyrrolo[2,3-d]pyrimidin-4-yl)piperazin-1-yl)but-2-en-1-one], the GI50 in the test with TMD-8 cells came to 2.9 µM. For the same molecule, the half-maximal inhibitory concentration (IC50) against Btk came to 2.3 nM.

Consider `C=CC(=O)N1CC[C@@H](Nc2ncnc3[nH]c(C#CCOc4cccc5c4OCO5)cc23)C1` [Example 83, (R)-1-(3-((6-(3-(benzo[d][1,3]dioxol-4-yloxy)prop-1-yn-1-yl)-7H-pyrrolo[2,3-d]pyrimidin-4-yl)amino)pyrrolidin-1-yl)prop-2-en-1-one], for which, in the test on TMD-8 cells, the 50% growth inhibitory concentration (GI50) turned out to be 0.0017 µM. On Btk, this molecule registered an IC50 of 8 nM.

Consider `C=CC(=O)N1CC[C@@H](Nc2ncnc3[nH]c(C#Cc4ccc(F)cc4)cc23)C1` [Example 62, (R)-1-(3-((6-((4-fluorophenyl)ethynyl)-7H-pyrrolo[2,3-d]pyrimidin-4-yl)amino)pyrrolidin-1-yl)prop-2-en-1-one], for which the GI50 in the test with TMD-8 cells is 0.024 µM. For the same molecule, the IC50 against Btk was found to be 52 nM.

On to `C=CC(=O)N1CC[C@@H](Nc2ncnc3[nH]c(C#CCOc4ccccc4)cc23)C1` [Example 40, (R)-1-(3-((6-(3-phenoxyprop-1-yn-1-yl)-7H-pyrrolo[2,3-d]pyrimidin-4-yl)amino)pyrrolidin-1-yl)prop-2-en-1-one], for which the GI50 in the test with TMD-8 cells stood at 0.004 µM. For the same molecule, the midpoint of inhibition against Btk, the IC50, lay at 0.3 nM.

As for `C=CC(=O)N1CCC(Nc2ncnc3[nH]c(C#CCOc4cccc(OC)c4)nc23)C1` (stereo not drawn) [Example 26, 1-(3-((8-(3-(3-methoxyphenoxy)prop-1-yn-1-yl)-9H-purin-6-yl)amino)pyrrolidin-1-yl)prop-2-en-1-one], the GI50 in the test on TMD-8 cells is 0.247 µM. At Btk, the IC50 turned out to be 6.5 nM.

Regarding `C=CC(=O)N1CC[C@@H](Nc2ncnc3[nH]c(C#Cc4cccc(F)c4)cc23)C1` [Example 61, (R)-1-(3-((6-((3-fluorophenyl)ethynyl)-7H-pyrrolo[2,3-d]pyrimidin-4-yl)amino)pyrrolidin-1-yl)prop-2-en-1-one], the GI50 with TMD-8 cells stood at 0.022 µM. This molecule also displayed an IC50 on Btk of 121 nM.

Turning to `C=CC(=O)N1CCC(Nc2ncnc3[nH]c(C#CCOc4ccccc4F)nc23)C1` (stereo not drawn) [Example 16, 1-(3-((8-(3-(2-fluorophenoxy)prop-1-yn-1-yl)-9H-purin-6-yl)amino)pyrrolidin-1-yl)prop-2-en-1-one], the GI50 in the test on TMD-8 cells came to 0.003 µM. Further, at Btk, half-maximal inhibition (IC50) required 0.6 nM.

Regarding `C=CC(=O)N1CC[C@@H](Nc2ncnc3[nH]c(C#CCOc4c(F)cccc4OC)cc23)C1` [Example 88, (R)-1-(3-((6-(3-(2-fluoro-6-methoxyphenoxy)prop-1-yn-1-yl)-7H-pyrrolo[2,3-d]pyrimidin-4-yl)amino)pyrrolidin-1-yl)prop-2-en-1-one], the GI50 in the test with TMD-8 cells came to 0.02 µM. In addition, at Btk, the IC50 amounted to 18 nM.

(Values after patent US10144737B2 (ETERNITY BIOSCIENCE INC., priority 2014, dated 2018).)
